Test results published in ChEMBL document CHEMBL1933067, “The design, synthesis and in vitro immunosuppressive evaluation of novel isobenzofuran derivatives” (Bioorg Med Chem Lett, 2012).

Columns and labels:
T-cell = experiment: Immunosuppressive activity in mouse T-cells assessed as inhibition of concanavalin A-induced proliferation; assay type: functional, cell-based
[1] = molecular target: Inosine-5'-monophosphate dehydrogenase 2 (Homo sapiens, UniProt P12268); experiment: Inhibition of IMPDH2

| IC50 [1] [µM] | Compound | IC50 (T-cell) [µM] |
| --- | --- | --- |
|  | O=C(Nc1cccc([N+](=O)[O-])c1)C(=O)Nc1ccc2c(c1)COC2=O | 1.82 |
|  | COc1cc(/C=C/C(=O)Nc2ccc3c(c2)COC3=O)ccc1OC(C)=O | 0.136 |
| 2.1 | COc1ccc(/C=C/C(=O)Nc2ccc3c(c2)COC3=O)cc1OC | 0.029 |
|  | O=C(Nc1ccc(Cl)cc1)Nc1ccc2c(c1)COC2=O | 2.45 |
|  | CCCNC(=O)Nc1ccc2c(c1)COC2=O | 58.1 |
|  | O=C(Nc1ccc(Cl)cc1)C(=O)Nc1ccc2c(c1)COC2=O | 2.24 |
|  | CN(Cc1ccccc1)C(=O)C(=O)Nc1ccc2c(c1)COC2=O | 14.3 |
|  | CC(C)(C)NC(=O)C(=O)Nc1ccc2c(c1)COC2=O | 3.4 |
|  | COc1ccc(NC(=O)C(=O)Nc2ccc3c(c2)COC3=O)cc1 | 153 |
| 3.2 | CC(C)(C)c1ccc(/C=C/C(=O)Nc2ccc3c(c2)COC3=O)cc1 | 0.72 |
|  | O=C(Nc1ccccc1)C(=O)Nc1ccc2c(c1)COC2=O | 36.1 |
|  | O=C(Nc1ccc(I)cc1)Nc1ccc2c(c1)COC2=O | 1.37 |
|  | O=C(/C=C/c1ccccc1Br)Nc1ccc2c(c1)COC2=O | > 100 |
|  | O=C(Nc1ccccc1)Nc1ccc2c(c1)COC2=O | 7.09 |
|  | COc1cc(CCC(=O)Nc2ccc3c(c2)COC3=O)cc(OC)c1OC | 7.74 |
|  | N#Cc1ccc(/C=C/C(=O)Nc2ccc3c(c2)COC3=O)cc1 | 43.1 |
|  | COc1cc(/C=C/C(=O)Nc2ccc3c(c2)COC3=O)cc(OC)c1OC | 1.73 |
|  | O=C(/C=C/c1ccco1)Nc1ccc2c(c1)COC2=O | 9 |

| IC50 [1] [µM] | Compound | IC50 (T-cell) [µM] |
| --- | --- | --- |
|  | COc1c(C)c2c(c(O)c1C/C=C(\C)CCC(=O)O)C(=O)OC2 [MYCOPHENOLIC ACID] | 0.28 |
| 2.8 | CC(=O)Oc1ccc(/C=C/C(=O)Nc2ccc3c(c2)COC3=O)cc1OC(C)=O | 0.18 |
|  | O=C(/C=C/c1ccccn1)Nc1ccc2c(c1)COC2=O | 17.9 |
|  | COc1ccccc1/C=C/C(=O)Nc1ccc2c(c1)COC2=O | 0.039 |
|  | Cc1cccc(NC(=O)Nc2ccc3c(c2)COC3=O)c1 | 2.26 |
| 8.8 | CC(=O)Oc1cccc(/C=C/C(=O)Nc2ccc3c(c2)COC3=O)c1 | 0.03 |
|  | Cc1ccccc1NC(=O)C(=O)Nc1ccc2c(c1)COC2=O | 5.51 |
|  | CC(C)c1ccc(/C=C/C(=O)Nc2ccc3c(c2)COC3=O)cc1 | 1.59 |
|  | O=C(Nc1ccc(F)cc1)C(=O)Nc1ccc2c(c1)COC2=O | 0.57 |
|  | Cc1ccc(NC(=O)Nc2ccc3c(c2)COC3=O)cc1 | 2.67 |
| 4.5 | O=C(/C=C/c1cccc(F)c1)Nc1ccc2c(c1)COC2=O | 0.034 |
|  | Cc1ccccc1NC(=O)Nc1ccc2c(c1)COC2=O | 0.9 |
|  | O=C(Nc1ccc(O)cc1)C(=O)Nc1ccc2c(c1)COC2=O | 5.03 |
|  | O=C(Nc1ccc(F)cc1)Nc1ccc2c(c1)COC2=O | 4.19 |
|  | COc1cc(CN(C)C(=O)C(=O)Nc2ccc3c(c2)COC3=O)cc(OC)c1OC | 3.28 |
|  | O=C(Nc1ccc2c(c1)COC2=O)NC1CCCCC1 | 12.7 |
|  | CN(C(=O)Nc1ccc2c(c1)COC2=O)c1ccccc1 | > 100 |
|  | O=C(/C=C/c1ccccc1)Nc1ccc2c(c1)COC2=O | 7.24 |
